Data from US11000033B2, “Ketone or oxime compound, and herbicide” (NISSAN CHEMICAL CORPORATION, priority 2014, dated 2021).

How the values were obtained:
Type in all cases: in vivo
rice = assay: Test Example 4: effect on crop by soil treatment (symbol b); details: application herbicide amount 320 g/ha
Outline: (§1)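 Steps: fill box with sterilized diluvial soil; sow seed spot-like; cover with ~1.5 cm soil; grow in greenhouse (25° C. to 30° C.).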

Alopecurus myosuroides = assay: Test Example 5: herbicidal effect by foliage application, plastic box (symbol J); details: 320 g/ha, 3 weeks after application
Outline: (§2)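 Seeds were sown in sterilized diluvial soil, covered with about 1.5 cm of soil and grown 14 days in a greenhouse at 25° C. to 30° C. An emulsifiable formulation diluted in water to a set rate was sprayed over foliage, and injury was scored 3 weeks later.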

corn [1] = assay: Test Example 5: effect on crop by foliage application, plastic box (symbol c); details: 320 g/ha, 3 weeks after application
Outline: (§3)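 Soil: sterilized diluvial. Container: plastic box, 21 × 13 cm, 7 cm deep. Sowing: spot-like, ~1.5 cm cover. Growth: greenhouse, 25° C. to 30° C.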

soybean = assay: Test Example 5: effect on crop by foliage application, plastic box (symbol d); details: 320 g/ha, 3 weeks after application
Outline: as §3

Monochoria vaginalis = assay: Test Example 2: herbicidal activity, application during weed generation in submerged conditions (symbol C); details: Table 23; application herbicide amount 320 g/ha; grade 0-5 by criteria of Test Example 1
Outline: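 Visual herbicidal ratings, taken three weeks after dosing, reflect post-emergence water-surface application to seedlings at one to two leaves. Conditions: co-sown weeds in alluvial soil flooded to 4 cm, greenhouse held at 25° C. to 30° C.; compound given as water-diluted emulsion at a fixed herbicide amount.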

Avena fatua = assay: Test Example 4: herbicidal effect by soil treatment (symbol I); details: application herbicide amount 320 g/ha
Outline: (§4)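 Seeds were sown in sterilized diluvial soil, covered with about 1.5 cm of soil, and the soil surface was sprayed with a water-diluted emulsion of the compound at a predetermined rate. Plants grew in a greenhouse at 25° C. to 30° C.; effects were scored visually 3 weeks after application.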

Leptochloa chinensis = assay: Test Example 3: herbicidal effect by foliage application, Wagner pot (symbol D); details: application herbicide amount 320 g/ha, Table 24
Outline: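 Herbicidal activity was rated three weeks after a foliar spray of diluted emulsion concentrate, applied at a predetermined dose to plants grown for 14 days from seed in waterlogged alluvial soil within a 25–30 °C greenhouse.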

corn [2] = assay: Test Example 4: effect on crop by soil treatment (symbol c); details: application herbicide amount 320 g/ha
Outline: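 Seeds were sown in spots on sterilized diluvial soil in a plastic box and covered with about 1.5 cm of soil. Plants were then grown in a greenhouse at 25° C. to 30° C.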

rapeseed = assay: Test Example 4: effect on crop by soil treatment (symbol g); details: application herbicide amount 320 g/ha
Outline: as §1

[3] = system: Echinochloa crus-galli var. crus-galli; assay: Test Example 5: herbicidal effect by foliage application, plastic box (symbol H); details: 320 g/ha, 3 weeks after application
Outline: as §2

Digitaria ciliaris = assay: Test Example 4: herbicidal effect by soil treatment (symbol F); details: application herbicide amount 320 g/ha
Outline: as §4

Row | SMILES | Effect on crop grade, b: directly sowed rice plant (rice) | J: Alopecurus myosuroides, herbicidal effect grade (Alopecurus myosuroides) | c: corn, effect on crop grade (corn [1]) | d: soybean, effect on crop grade (soybean) | Herbicidal effect grade, C: Monochoria vaginalis (Monochoria vaginalis) | Herbicidal effect grade, I: Avena fatua (Avena fatua) | D (Leptochloa chinensis) herbicidal effect grade (Leptochloa chinensis) | Effect on crop grade, c: corn (corn [2]) | Effect on crop grade, g: rapeseed (rapeseed) | H: Echinochloa crus-galli var. crus-galli, herbicidal effect grade [3] | Herbicidal effect grade, F: Digitaria ciliaris (Digitaria ciliaris) | b: directly sowed rice plant, effect on crop grade (rice) | I: Avena fatua, herbicidal effect grade (Avena fatua) | c: corn, effect on crop grade (corn [2]) | g: rapeseed, effect on crop grade (rapeseed) | F: Digitaria ciliaris, herbicidal effect grade (Digitaria ciliaris)
1 | CC(CC1CC(OC(=O)COc2ccccc2)=C(c2c(C)cc(-c3ccc(Cl)cc3)cc2C)C1=O)=NOCC(F)(F)F (mixture of isomers) [9-027] | 5 (Herbicidal ratio of 90% or more (almost completely withered)) | 5 (Herbicidal ratio of 90% or more (almost completely withered)) | 5 (Herbicidal ratio of 90% or more (almost completely withered)) | 0 (Herbicidal ratio of 5% or lower (almost no effect)) | 0 (Herbicidal ratio of 5% or lower (almost no effect)) | 4 (Herbicidal ratio of 70% or higher and lower than 90%) | 5 (Herbicidal ratio of 90% or more (almost completely withered)) | 0 (Herbicidal ratio of 5% or lower (almost no effect)) | 1 (Herbicidal ratio of 5% or higher and lower than 20%) | 5 (Herbicidal ratio of 90% or more (almost completely withered)) | 5 (Herbicidal ratio of 90% or more (almost completely withered)) |  |  |  |  | 
2 | CON=C(CC1CC(O)=C(c2c(C)cc(-c3ccccc3)cc2C)C1=O)C1CC1 (mixture of isomers) [9-028] | 3 (Herbicidal ratio of 40% or higher and lower than 70%) | 5 (Herbicidal ratio of 90% or more (almost completely withered)) | 5 (Herbicidal ratio of 90% or more (almost completely withered)) | 1 (Herbicidal ratio of 5% or higher and lower than 20%) | 4 (Herbicidal ratio of 70% or higher and lower than 90%) | 3 (Herbicidal ratio of 40% or higher and lower than 70%) | 5 (Herbicidal ratio of 90% or more (almost completely withered)) | 1 (Herbicidal ratio of 5% or higher and lower than 20%) | 4 (Herbicidal ratio of 70% or higher and lower than 90%) | 5 (Herbicidal ratio of 90% or more (almost completely withered)) | 5 (Herbicidal ratio of 90% or more (almost completely withered)) |  |  |  |  | 
3 | COC(=O)C(C(=O)C1CC1)C1CC(O)=C(c2c(C)cc(Br)cc2C)C1=O (mixture of isomers) [10-002] | 4 (Herbicidal ratio of 70% or higher and lower than 90%) | 4 (Herbicidal ratio of 70% or higher and lower than 90%) | 5 (Herbicidal ratio of 90% or more (almost completely withered)) | 0 (Herbicidal ratio of 5% or lower (almost no effect)) | 0 (Herbicidal ratio of 5% or lower (almost no effect)) | 3 (Herbicidal ratio of 40% or higher and lower than 70%) | 5 (Herbicidal ratio of 90% or more (almost completely withered)) | 0 (Herbicidal ratio of 5% or lower (almost no effect)) | 0 (Herbicidal ratio of 5% or lower (almost no effect)) | 5 (Herbicidal ratio of 90% or more (almost completely withered)) | 4 (Herbicidal ratio of 70% or higher and lower than 90%) |  |  |  |  | 
4 | CON=C(C)CC1(C)CC(O)=C(c2c(C)cc(C)cc2C)C1=O (mixture of isomers) [11-002] | 4 (Herbicidal ratio of 70% or higher and lower than 90%) | 5 (Herbicidal ratio of 90% or more (almost completely withered)) | 2 (Herbicidal ratio of 20% or higher and lower than 40%) | 1 (Herbicidal ratio of 5% or higher and lower than 20%) | 0 (Herbicidal ratio of 5% or lower (almost no effect)) | 3 (Herbicidal ratio of 40% or higher and lower than 70%) | 5 (Herbicidal ratio of 90% or more (almost completely withered)) | 1 (Herbicidal ratio of 5% or higher and lower than 20%) | 2 (Herbicidal ratio of 20% or higher and lower than 40%) | 5 (Herbicidal ratio of 90% or more (almost completely withered)) | 0 (Herbicidal ratio of 5% or lower (almost no effect)) |  |  |  |  | 
5 | CON=C(C)CC1C(O)=C(c2c(C)cc(C)cc2C)C(=O)C1C (mixture of isomers) [12-002] | 4 (Herbicidal ratio of 70% or higher and lower than 90%) | 5 (Herbicidal ratio of 90% or more (almost completely withered)) | 5 (Herbicidal ratio of 90% or more (almost completely withered)) | 1 (Herbicidal ratio of 5% or higher and lower than 20%) | 1 (Herbicidal ratio of 5% or higher and lower than 20%) | 4 (Herbicidal ratio of 70% or higher and lower than 90%) | 5 (Herbicidal ratio of 90% or more (almost completely withered)) | 3 (Herbicidal ratio of 40% or higher and lower than 70%) | 1 (Herbicidal ratio of 5% or higher and lower than 20%) | 5 (Herbicidal ratio of 90% or more (almost completely withered)) | 4 (Herbicidal ratio of 70% or higher and lower than 90%) |  |  |  |  | 
6 | CCC(CC1CC(O)=C(c2c(C)cc(Br)cc2OC)C1=O)=NOC (mixture of isomers) [13-001] |  | 5 (Herbicidal ratio of 90% or more (almost completely withered)) | 5 (Herbicidal ratio of 90% or more (almost completely withered)) | 0 (Herbicidal ratio of 5% or lower (almost no effect)) | 0 (Herbicidal ratio of 5% or lower (almost no effect)) |  | 5 (Herbicidal ratio of 90% or more (almost completely withered)) |  |  | 5 (Herbicidal ratio of 90% or more (almost completely withered)) |  | 5 (Herbicidal ratio of 90% or more (almost completely withered)) | 2 (Herbicidal ratio of 20% or higher and lower than 40%) | 5 (Herbicidal ratio of 90% or more (almost completely withered)) | 0 (Herbicidal ratio of 5% or lower (almost no effect)) | 5 (Herbicidal ratio of 90% or more (almost completely withered))
